Where “and” joins values, the source holds several entries; their conditions need not be identical. Identical values can stand only once. Entries after “also recorded” stand apart in the source; their conditions may differ.

The nature of data set [1]: Vitamin E acetate in rabbit aqueous humor samples. The format is in vivo. Particulars: days 1, 4, 7, 12; quantification limit 1.0 ng/mL.
The conditions of data set [2]: single 50 μL instillation.
Data set [3] can be described thus: In vitro release of gatifloxacin from liquid depot, samples Gati-90A to F. The data set is classed as physicochemical. The settings on record: for Gatifloxacin cumulative % released, Avg: Avg of 90-A to 90-F. How it is done: The in vitro sustained release study of gatifloxacin was carried out using a Cabone ring (Wilton Brands LLC, Woodridge, Ill. 60517) of 12.7 mm. […] [At each time point, 20 ml from each of the six samples was withdrawn for sampling and replaced with 20 mL saline. The amount of gatifloxacin released was determined by UPLC. The release profile of gatifloxacin-containing liquid depot formulation is shown in Table 15, Table 16, and FIG. 14; gatifloxacin was released for at least 24 hours.

Data set [4] in a line: Diclofenac in tear samples after 50 μL liquid depot. The format is in vivo, NZW rabbits. The settings on record: one-time application of 50 μL. On the procedure: A formulation of the NSAID diclofenac was prepared by thoroughly mixing 10% diclofenac acid in a 90% liquid depot mixture of 80:20 tocopheryl acetate:Miglyol®. A one-time application of 50 μL of this formulation was instilled into the eyes of NZW rabbits, and then tear samples were collected and analyzed as described herein.

A short description of data set [5]: Dexamethasone in eye tissues and fluids after one 25 μL depot instillation. Particulars: for concentration at 3 day / concentration at 8 day / concentration at 8 h / concentration at 24 h / concentration at 14 day / concentration at 21 day: female, New Zealand White, rabbit, topical, 25 μL, Dexamethasone; for concentration at 3 day: Day 3; for concentration at 8 day: Day 8; for concentration at 24 h: Hr 24.

A short description of data set [6]: Dexamethasone level in anterior chamber after 50 μL depot (GLP study). The format is in vivo, New Zealand White (NZW) rabbits. Particulars: both sexes, New Zealand White, rabbit, topical. On the procedure:
In a good laboratory practices (GLP) study, depots of 50 μL were instilled into each eye of New Zealand White (NZW) rabbits (either sex, 3.5-4 kilo), and the anterior chamber tapped subsequently and assayed by LCMS.

Data set [7] in a line: In vitro release of prednisolone from liquid depot, samples 5A to 5F. The data set is classed as physicochemical. How it is done: Six samples, 5A to 5F, each weighing at 48.2 mg, 48.5 mg, 48.1 mg, 49 mg, 51.7 mg, and 49.2 mg, respectively (average weight=49.1 mg; SD=1.34; % RSD=2.7) were incubated in 50 ml saline at 40° C. At each time point, 25 ml from each of the six samples was withdrawn for sampling and replaced with 25 ml saline.

[8] abbreviates: aqueous humor, Aqueous Humor Average (±SD), one 25 μL instillation of 10% dexamethasone depot.
Where [9] appears, read: conjunctiva, Conjunctiva Average (±SD), one 25 μL instillation.
[10] abbreviates: cornea, Cornea Average (±SD), one 25 μL instillation.
Setting [11] is: iris/ciliary body, Iris/Ciliary Body Average (±SD), one 25 μL instillation.
Setting [12] is: one instillation of the liquid depot.

In the case of `CC(=O)Oc1c(C)c(C)c2c(c1C)CC[C@@](C)(CCC[C@H](C)CCC[C@H](C)CCCC(C)C)O2` [Vitamin E acetate, [(2R)-2,5,7,8-tetramethyl-2-[(4R,8R)-4,8,12-trimethyltridecyl]chroman-6-yl]acetate], the “Vitamin E acetate in aqueous humor samples” value in data set [1] is listed as “not observed; also recorded: No detectable”. Besides, the “Time vitamin E acetate was present in the tears of rabbit eyes” value in data set [2] is listed as “at least 12 days”.
`COc1c(N2CCNC(C)C2)c(F)cc2c(=O)c(C(=O)O)cn(C3CC3)c12` (stereo not shown) [Gatifloxacin, gatifloxacin]: the “Average concentration of gatifloxacin released” value in data set [3] (1 Hour) was 38.9 µg/mL; in data set [3] (3 Hours), 61.9 µg/mL; in data set [3] (24 Hours), 53.4 µg/mL. Further, the “Gatifloxacin cumulative % released, Avg” value was 32.3% in data set [3] (1 Hour), 67.5% in data set [3] (3 Hours) and 86.2% in data set [3] (24 Hours). The “Time gatifloxacin was released in vitro” value in data set [3] (40 mL saline at 40° C.) was “at least 24 hours”.
`O=C(O)Cc1ccccc1Nc1c(Cl)cccc1Cl` [diclofenac, diclofenac acid]: in data set [4], the “Time diclofenac was detected in the rabbit tear film” value is given as no less than 7 days.
Turning to `C[C@@H]1C[C@H]2[C@@H]3CCC4=CC(=O)C=C[C@]4(C)[C@@]3(F)[C@@H](O)C[C@]2(C)[C@@]1(O)C(=O)CO` [Dexamethasone, dexamethasone], the “Dexamethasone, Iris/Ciliary Body Tissue” value in data set [5] (Day 14, per eye, one 25 μL instillation) is 1.21 ng/g and 2.00 ng/g; in data set [5] (Hr 8, per eye, one 25 μL instillation), 83.0 ng/g and 86.0 ng/g and 150 ng/g and 113 ng/g and 157 ng/g. In addition, the “Dexamethasone, Iris/Ciliary Body Homog.” value in data set [5] (Day 14, per eye, one 25 μL instillation, LOQ 0.2 ng/mL) was 0.241 ng/mL and 0.399 ng/mL; in data set [5] (Day 21, per eye, one 25 μL instillation, LOQ 0.2 ng/mL) it was “BLOQ”; in data set [5] (Hr 8, per eye, one 25 μL instillation, LOQ 0.2 ng/mL), 16.6 ng/mL and 17.2 ng/mL and 30.0 ng/mL and 22.5 ng/mL and 31.4 ng/mL. Further, the “Dexamethasone, Aqueous Humor Conc.” value in data set [5] (Day 21, per eye, one 25 μL instillation of 10% dexamethasone depot, LOQ 0.5 ng/mL) is listed as “BLOQ”. The concentration at 3 day amounted to 2.5 ng/mL in data set [5] (setting [8]); 372 ng/g in data set [5] (setting [9]); 176 ng/g in data set [5] (setting [10]); 9.72 ng/g in data set [5] (setting [11]); 6.48 ng/mL in data set [6] (Day 3, 50 μL depot 10:72:18). The concentration at 8 day was 7.53 ng/mL in data set [5] (setting [8]), 1630 ng/g in data set [5] (setting [9]), 284 ng/g in data set [5] (setting [10]) and 8.15 ng/g in data set [5] (setting [11]). The concentration at 8 h in data set [5] (aqueous humor, Aqueous Humor Average (±SD), Hr 8, one 25 μL instillation of 10% dexamethasone depot) came out at 44.8 ng/mL; in data set [5] (conjunctiva, Conjunctiva Average (±SD), Hr 8, one 25 μL instillation) it was 1660 ng/g; in data set [5] (cornea, Cornea Average (±SD), Hr 8, one 25 μL instillation), 560 ng/g; in data set [5] (iris/ciliary body homogenate, Iris/Ciliary Body Homog., Hr 8, per eye, one 25 μL instillation, LOQ 0.2 ng/mL), 30.2 ng/mL; in data set [5] (iris/ciliary body, Iris/Ciliary Body Average (±SD), Hr 8, one 25 μL instillation) it was 123 ng/g; in data set [5] (iris/ciliary body, Iris/Ciliary Body Tissue, Hr 8, per eye, one 25 μL instillation), 151 ng/g. Moreover, the concentration at 24 h in data set [5] (setting [8]) was 2.47 ng/mL; in data set [5] (setting [9]) it was 598 ng/g; in data set [5] (setting [10]), 260 ng/g; in data set [5] (setting [11]) it was 12.3 ng/g. The concentration at 14 day amounted to 0.677 ng/mL in data set [5] (aqueous humor, Aqueous Humor Conc., Day 14, per eye, one 25 μL instillation of 10% dexamethasone depot, LOQ 0.5 ng/mL); 53.8 ng/g in data set [5] (conjunctiva, Conjunctiva Average (±SD), Day 14, one 25 μL instillation); 12.2 ng/g in data set [5] (cornea, Cornea Average (±SD), Day 14, one 25 μL instillation); 0.239 ng/mL in data set [5] (iris/ciliary body homogenate, Iris/Ciliary Body Homog., Day 14, per eye, one 25 μL instillation, LOQ 0.2 ng/mL); 1.47 ng/g in data set [5] (iris/ciliary body, Iris/Ciliary Body Average (±SD), Day 14, one 25 μL instillation); 1.2 ng/g in data set [5] (iris/ciliary body, Iris/Ciliary Body Tissue, Day 14, per eye, one 25 μL instillation). Further, the concentration at 21 day in data set [5] (conjunctiva, Conjunctiva Average (±SD), Day 21, one 25 μL instillation) turned out to be 28.2 ng/g; in data set [5] (cornea, Cornea Average (±SD), Day 21, one 25 μL instillation), 8.14 ng/g; in data set [5] (iris/ciliary body, Iris/Ciliary Body Average (±SD), Day 21, one 25 μL instillation), 3.88 ng/g. Moreover, in data set [5] (setting [12]), the “Time dexamethasone was in the aqueous humor” value is recorded as “at least 8 days”. In addition, in data set [5] (setting [12]), the “Time dexamethasone was in the conjunctiva, cornea, and iris/ciliary body” value is recorded as “at least 21 days”. For the same molecule, the concentration at 1 day in data set [6] (Day 1, 50 μL depot 10:72:18) came out at 6.68 ng/mL. For the same molecule, the concentration at 5 day in data set [6] (Day 5, 50 μL depot 10:72:18) was 4.14 ng/mL. Also, in data set [6] (Day 7, 50 μL depot 10:72:18), the concentration at 7 day turned out to be 4.08 ng/mL. In data set [6] (Day 10, 50 μL depot 10:72:18), this molecule came in with a concentration at 10 day of 3.2 ng/mL.
Take `C[C@]12C=CC(=O)C=C1CC[C@@H]1[C@@H]2[C@@H](O)C[C@@]2(C)[C@H]1CC[C@]2(O)C(=O)CO` [Prednisolone, prednisolone]: the “Prednisolone cumulative % released, Avg” value in data set [7] (Day 0, Avg of 5A to 5F) amounted to 0%. Also, the “Average concentration of prednisolone released” value in data set [7] (Day 1) was 32.6 µg/mL; in data set [7] (Day 2) it was 39.4 µg/mL; in data set [7] (Day 3) it was 38.1 µg/mL; in data set [7] (Day 4), 30.6 µg/mL; in data set [7] (Day 5), 19.6 µg/mL. Moreover, the “Amount of prednisolone released, Avg” value is 1630.3 µg in data set [7] (Day 1, Avg of 5A to 5F); 1153.1 µg in data set [7] (Day 2, Avg of 5A to 5F); 922.4 µg in data set [7] (Day 3, Avg of 5A to 5F); 577.5 µg in data set [7] (Day 4, Avg of 5A to 5F); 72.3 µg in data set [7] (Day 5, Avg of 5A to 5F).

(Values after patent publication US12280141B2, “Liquid depot for non-invasive sustained delivery of agents to the eye” (CHIBI, INC., priority 2018, dated 2025).)
